{"source": "paper PMC6956158", "about": "“In Vitro and In Vivo Assessment of Metabolic Drug Interaction Potential of Dutasteride with Ketoconazole” (Pharmaceutics, 2019)", "key": {"[1]": {"assay": "Unbound fraction by rapid equilibrium dialysis, HLM", "assay_type": "in vitro ADME, human", "protocol": "(§1) To investigate the metabolic interaction potential between DUT and KET, the disappearance of DUT (5 μM) in RLM and HLM was determined under the absence and presence of KET at various concentrations ranging from 1 to 5000 nM. A microsomal reaction mixture was prepared as follows (total volume: 0.2 mL): 1 mM NADPH, 10 mM MgCl2, substrate (DUT), and inhibitor (KET), RLM or HLM (1 mg/mL), and 50 mM phosphate buffer. At 0 and 90 min after starting the metabolic reaction, a 50 μL aliquot of microsomal incubation mixture was sampled and immediately transferred into a clean 1.5 mL microcentrifuge tube containing 100 μL cold ACN with an internal standard (celecoxib at 400 ng/mL) to stop the metabolic reaction. After vortex mixing and centrifugation at 15,000× g for 10 min, a 100 μL aliquot of the supernatant was stored at −80 °C. The unbound fractions of DUT in rat plasma, RLM, human plasma, and HLM were measured using a rapid equilibrium dialysis (RED) device (Thermo Fisher Scientific, Inc., Waltham, MA, USA) as described in a previous study. […] The fraction unbound was calculated as the ratio of the drug concentrations in the “buffer” chamber to those in the “sample” chamber. The blood-to-plasma concentration ratio (RB) of DUT was determined as described previously. […] The concentrations of DUT in the plasma sample were determined by the validated HPLC analysis."}, "[2]": {"assay": "Stability in rat plasma (QC samples)", "assay_type": "in vitro ADME", "conditions": "n = 5; for Stability (percent drug remaining), Autosampler: 10 °C for 24 h in the autosampler; for Stability (percent drug remaining), Bench-Top: room temperature for 3 h; for Stability (percent drug remaining), Freeze-Thaw: three freezing and thawing cycles; for Stability (percent drug remaining), Long-Term: −20 °C for 30 days", "protocol": "The bioanalytical method proposed herein for the simultaneous determination of DUT and H-DUT was fully validated on the basis of the US FDA guideline. The selectivity of the method was evaluated by comparing chromatograms of the analytes (DUT, H-DUT, and internal standard) in blank rat plasma, blank rat plasma spiked with the analytes, and rat plasma sample obtained from the in vivo rat pharmacokinetic study. Further, the existence of potential interferences at the acquisition windows of the analytes was checked. The linearity of the method was evaluated by adding increasing amounts of DUT and H-DUT to the blank plasma. To construct calibration curves (n = 5), the peak area ratios of DUT or H-DUT to the internal standard (y-axis) were plotted against the nominal concentration ratios of DUT or H-DUT (10–1000 ng/mL) to the internal standard (400 ng/mL) (x-axis), and then, linear regression analysis was performed. The sensitivity was assessed by estimating the LLOQ (signal-to-noise [S/N] ratio > 5). The peaks of the analytes at the LLOQ should be discrete, identifiable, and reproducible with acceptable precision (<20%) and accuracy (within 80–120%). The extraction recovery, matrix effect, dilution integrity, and stability (under bench-top, freeze–thaw, post-preparative, and long-term conditions) in addition to the intra-assay (five different samples) and inter-assay (five different runs) precision and accuracy for each analyte were determined at the LLOQ and three different QC levels as described in the US FDA guidelines and in previous studies."}, "[3]": {"assay": "Unbound fraction by rapid equilibrium dialysis, human plasma", "assay_type": "in vitro ADME", "protocol": "as §1"}, "[4]": {"assay": "Previous and preliminary rat studies of intravenous DUT", "assay_type": "in vivo", "conditions": "rats, preliminary study"}, "[5]": {"assay": "Blood-to-plasma concentration ratio (RB), blood distribution", "assay_type": "in vitro ADME", "conditions": "rat, fresh rat blood, 37 °C", "protocol": "as §1"}, "[6]": {"assay": "Basic (simple static) model prediction of clinical DUT-KET interaction", "design": "species or system human", "conditions": "clinical prediction from HLM data, R = 1 + Imax,u / Ki", "protocol": "Supplementary Materials: In Vitro and In Vivo\nAssessment of Metabolic Drug Interaction Potential of Dutasteride with Ketoconazole\nTable S1. Previous literatures on bioanalytical methods for DUT using HPLC system coupled with ultraviolet-visible (UV/Vis) and tandem mass (MS/MS) detector.\nDetector Matrix Sample Sample Preparation Mobile Phase Conc. Range Validation Ref.\nLC-MS/MS Human plasma 300 µL LLE Isocratic 0.1-25 ng/mL Full\nLC-MS/MS Human plasma 500 µL LLE Gradient 0.1-25 ng/mL Full\nLC-MS/MS Human plasma 500 µL SPE Gradient 1-100 ng/mL Full\nLC-MS/MS Human plasma 500 µL SPE Isocratic 0.1-10 ng/mL Full\nLC-MS/MS Human plasma 900 µL LLE Isocratic 0.5-50 ng/mL Full\nLC-MS/MS Human plasma 1000 µL LLE Gradient 0.05-4 ng/mL Full\nLC-MS/MS Human Serum 2000 µL LLE NR 0.025-2.5 ng/mL Partial\nLC-MS/MS Human Urine 5000 µL SPE Gradient NR Partial\nLC-MS/MS Rat plasma 100 µL LLE Isocratic 1-500 ng/mL Partial\nLC-MS/MS Rat plasma 100 µL LLE Isocratic 5-400 ng/mL Partial\nHPLC-UV Rat blood 100 µL Deproteinization Gradient NR Partial […]\nwhere the R is the predicted ratio of the AUC of DUT in the presence and absence of KET, the Imax,u is the maximum unbound plasma concentration of KET, and the Ki is the unbound inhibition constant of KET determined in vitro. Since IC50 only was determined in this study, it was converted to Ki using the following equation for competitive inhibition. […]"}}}
{"smiles": "C[C@]12C=CC(=O)N[C@@H]1CC[C@@H]1[C@@H]2CC[C@]2(C)[C@@H](C(=O)Nc3cc(C(F)(F)F)ccc3C(F)(F)F)CC[C@@H]12", "note": "[DUT, Dutasteride]", "values": [{"measurement": "fraction of unbound DUT, presence versus absence of KET", "setting": "[1]; DUT and KET 5 μM, n = 5", "value": "no significant differences"}, {"measurement": "fraction unbound at 5 μM", "setting": "[1]; human, human liver microsomes, DUT 5 μM, RED device", "value": 0.091}, {"measurement": "Stability (percent drug remaining), Autosampler", "setting": "[2]; HQC 750 ng/mL", "value": "102 ± 2", "unit": "%"}, {"measurement": "Stability (percent drug remaining), Bench-Top", "setting": "[2]; HQC 750 ng/mL", "value": "102 ± 0", "unit": "%"}, {"measurement": "Stability (percent drug remaining), Freeze-Thaw", "setting": "[2]; HQC 750 ng/mL", "value": "100 ± 0", "unit": "%"}, {"measurement": "Stability (percent drug remaining), Long-Term", "setting": "[2]; HQC 750 ng/mL", "value": "105 ±1", "unit": "%"}, {"measurement": "Stability (percent drug remaining), Autosampler", "setting": "[2]; LLOQ 10 ng/mL", "value": "103 ± 8", "unit": "%"}, {"measurement": "Stability (percent drug remaining), Bench-Top", "setting": "[2]; LLOQ 10 ng/mL", "value": "108 ± 1", "unit": "%"}, {"measurement": "Stability (percent drug remaining), Freeze-Thaw", "setting": "[2]; LLOQ 10 ng/mL", "value": "99.3 ± 4.7", "unit": "%"}, {"measurement": "Stability (percent drug remaining), Long-Term", "setting": "[2]; LLOQ 10 ng/mL", "value": "105 ± 5", "unit": "%"}, {"measurement": "Stability (percent drug remaining), Autosampler", "setting": "[2]; LQC 30 ng/mL", "value": "103 ± 1", "unit": "%"}, {"measurement": "Stability (percent drug remaining), Bench-Top", "setting": "[2]; LQC 30 ng/mL", "value": "105 ± 6", "unit": "%"}, {"measurement": "Stability (percent drug remaining), Freeze-Thaw", "setting": "[2]; LQC 30 ng/mL", "value": "99.7 ± 2.7", "unit": "%"}, {"measurement": "Stability (percent drug remaining), Long-Term", "setting": "[2]; LQC 30 ng/mL", "value": "102 ± 4", "unit": "%"}, {"measurement": "Stability (percent drug remaining), Autosampler", "setting": "[2]; MQC 150 ng/mL", "value": "104 ± 2", "unit": "%"}, {"measurement": "Stability (percent drug remaining), Bench-Top", "setting": "[2]; MQC 150 ng/mL", "value": "103 ± 1", "unit": "%"}, {"measurement": "Stability (percent drug remaining), Freeze-Thaw", "setting": "[2]; MQC 150 ng/mL", "value": "106 ± 2", "unit": "%"}, {"measurement": "Stability (percent drug remaining), Long-Term", "setting": "[2]; MQC 150 ng/mL", "value": "100 ± 1", "unit": "%"}, {"measurement": "fraction unbound at 5 μM", "setting": "[3]; DUT 5 μM, RED device", "value": 0.0078}, {"measurement": "fraction of unbound DUT, presence versus absence of KET", "setting": "[3]; DUT and KET 5 μM, n = 5", "value": "no significant differences"}, {"measurement": "renal excretion of DUT in the unchanged form", "setting": "[4]", "value": "less than 1 % of intravenously administered dose"}, {"measurement": "blood plasma ratio at 60 min, 5 μM", "setting": "[5]; DUT 5 μM alone", "value": "0.712 ± 0.026"}, {"measurement": "blood plasma ratio at 60 min, 5 μM", "setting": "[5]; DUT 5 μM in the presence of KET 5 μM", "value": "0.692 ± 0.036"}, {"measurement": "R, predicted ratio of the AUC of DUT in the presence and absence of KET", "setting": "[6]", "value": 2.88}]}
